From patent US4654370A, “Glyceryl valproates” (Abbott Laboratories, priority 1980, dated 1987)

Tests used:
audiogenic seizures = test: Protective effects against audiogenic seizures in mice; format: in vivo; conditions: oral; 800 mg./kg. valproic acid equivalent; 30 min after dosing; bell for one minute; groups of 10 mice
Experimental: The valproic acid equivalent of 800 mg./kg. of each compound was administered by oral intubation in a composition prepared as shown in Example 12 to groups of 10 mice. Thirty minutes after dosing, convulsions were produced by electrically activating a bell for one minute.

epileptic seizures = conditions: stated as background; cited from earlier work
gastro-intestinal tract = conditions: cited from earlier work
[1] = Valproic acid blood plasma levels after oral intubation in rats; format: in vivo; conditions: rat, equivalent of 200 mg. valproic acid per animal, mean of 3-18 animals
Experimental: (§1) The compounds of the present invention were administered to mice and rats by oral intubation. A vehicle of 0.5% aqueous methylcellulose containing one drop of a polyethylene sorbitan monooleate was used to suspend the above compounds. In the case of Example 1, the compound was first ground in a tissue-homogenizer followed by mixing in a Waring blender. The results are shown in Table I expressed in mcg. of valproic acid per ml. of blood plasma at specified times.

[2] = Absorption profiles and area-under-the-curve in beagle dog; format: in vivo; conditions: blood, single oral dose 24.9 mg./kg. valproic acid equivalent
Experimental: Since it is possible that the new compounds are not absorbed as quickly as valproic acid itself, absorption profiles and area-under-the-curve (AUC) values were calculated for valproic acid, glyceride trivalproate and representatives of the current compounds. The phrase AUC values represents the total quantity of the compound which is absorbed by the blood during the time periods referred to in Table III expressed in mcg./ml. A beagle dog received a single oral dose of 24.9 mg./kg. valproic acid equivalent in a composition prepared as shown in Example 12. The blood concentrations are shown in Table III as mcg./ml. while the AUC values are expressed as hr.×mcg./ml.

[3] = Valproic acid blood plasma levels after oral intubation in mice; format: in vivo; conditions: mouse, equivalent of 200 mg. valproic acid per animal, mean of 3-18 animals
Experimental: as §1

For `CCCC(CCC)C(=O)OCC(COC(=O)C(CCC)CCC)OC(=O)C(CCC)CCC` [Glycerol trivalproate], the “Percentage of Mice Exhibiting Seizures, Any Type” value (“Percentage … Any Type” below) (audiogenic seizures) is given as 100%, the “Percentage of Mice Exhibiting Seizures, Tonic Extension” value (shortened to “Percentage … Tonic Extension”) (audiogenic seizures) is given as 80% and the therapeutic value (epileptic seizures) is given as “substantially no therapeutic value”. The adverse side effects (gastro-intestinal tract; reported by Meijer and Meinardi, 1975) was “no adverse side effects”.
In the case of `CCCC(CCC)C(=O)OCC(O)CO` (racemic) [Example 6, 1-Valproyl-glycerol], the “Percentage … Any Type” value (audiogenic seizures) is reported as 50% and the “Percentage … Tonic Extension” value (audiogenic seizures) is reported as 10%.
For `CCCC(CCC)C(=O)OC(COC(C)=O)COC(C)=O` [Example 5, 1,3-Diacetyl-2-valproyl-glyceride], the “Percentage … Any Type” value (audiogenic seizures) was 50% and the “Percentage … Tonic Extension” value (audiogenic seizures) was 10%.
With `CCCC(CCC)C(=O)O` [Valproic Acid, 2-propylpentanoic acid] the concentration at 0.5 h ([1]; 0.5 hrs.) was 84100 ng/mL, the concentration at 1.5 h ([1]; 1.5 hrs.) was 27500 ng/mL and the “Percentage … Any Type” value (audiogenic seizures) was 50%. The “Percentage … Tonic Extension” value (audiogenic seizures) was 10%, the concentration at 0.5 h ([2]; 0.5 hrs.) was 65600 ng/mL and the concentration at 1 h ([2]; 1 hr.) was 40800 ng/mL. For the same molecule, the concentration at 2 h ([2]; 2 hrs.) was 9000 ng/mL, the concentration at 4 h ([2]; 4 hrs.) was 2600 ng/mL and the concentration at 6 h ([2]; 6 hrs.) was 1300 ng/mL. For the same molecule, the AUC at 8 h ([2]; 8 hrs.) was 82200 ng·h/mL, the “gastro-intestinal irritation in patients” value (gastro-intestinal tract; patients using valproic acid) was 9-16% and the concentration at 0.5 h ([3]; 0.5 hrs.) was 134000 ng/mL. The concentration at 1.5 h ([3]; 1.5 hrs.) was 72000 ng/mL.
